# From patent US6162810A, “Inadone and tetralone compounds for inhibiting cell proliferation” (The Regents of the University of California, priority 1998, dated 2000)
# Columns and labels:
# [1] = tested on: human Jurkat T cell leukemia cells; test: Cytotoxicity to human Jurkat T cell leukemia cells, 3 days culture; assay type: cell-based; conditions: 72 h, concentration necessary to kill 50% of the cells, three days, OD570/650, read-out: TC50 (the source's name)
# Experimental: (A) The compounds prepared in Example 1 above were tested for biological activity by culturing human Jurkat T cell leukemia cells for three days at an initial density of 10^5 cells/ml in RPMI 1640+10% FBS (fetal bovine serum). Compounds of the invention were added, and the concentration necessary to kill 50% (TC50) of the cells was determined by OD570/650.
# [2] = tested on: CEM WT, CEM AB9228, MOLT-4, Jurkat, NALL-1, WI-L2, K562, and HL-60 cells; test: Cytotoxicity to various proliferating cell lines (average); assay type: cell-based, human; conditions: Homo sapiens, average TC50 over various proliferating cell lines; read-out: TC50 (the source's name)
# Experimental: (§1) (B) Similarly, compounds of the invention were tested for their ability to kill CEM WT, CEM AB9228, MOLT-4, Jurkat, NALL-1, WI-L2, K562, and HL-60 cells.
# [3] = tested on: HL-60/ADR and MDF-7/ADR cells; test: MTT assay, visual comparison of cells with and without MDR (FIGS. 1 and 2); assay type: cell-based, human; conditions: 3 days
# MV522 = test: Growth inhibition of MV522 (wild type); assay type: cell-based; conditions: Homo sapiens, ±1 SD, n>5
# MV522/Q6 = test: Growth inhibition of MV522/Q6 (MDR); assay type: cell-based; conditions: Homo sapiens, ±1 SD, n>5
# CEM/VLB100 = test: Growth inhibition of CEM/VLB100 (MDR); assay type: cell-based; conditions: Homo sapiens, ±1 SD, n>5
# MDA3-1/gp170 = test: Growth inhibition of MDA3-1/gp170 (MDR); assay type: cell-based; conditions: Homo sapiens, MDR1, ±1 SD, n>5
# MDA-MB-321 = test: Growth inhibition of MDA-MB-321 (wild type); assay type: cell-based; conditions: Homo sapiens, ±1 SD, n>5
# MES-SA/DX5 = test: Growth inhibition of MES-SA/DX5 (MDR); assay type: cell-based; conditions: Homo sapiens, ±1 SD, n>5
# KB-GRC-1 = test: Growth inhibition of KB-GRC-1 (MDR); assay type: cell-based; conditions: Homo sapiens, MDR1, ±1 SD, n>5
# MCF-7 = test: Growth inhibition of MCF-7 (wild type); assay type: cell-based; conditions: Homo sapiens, MCF7, ±1 SD, n>5
# MES-SA = test: Growth inhibition of MES-SA (wild type); assay type: cell-based; conditions: Homo sapiens, ±1 SD, n>5
# CEM = test: Growth inhibition of CEM (wild type); assay type: cell-based; conditions: Homo sapiens, CCRF-CEM, ±1 SD, n>5
# MCF-7/ADR = test: Growth inhibition of MCF-7/ADR (MDR); assay type: cell-based; conditions: Homo sapiens, NCI/ADR-RES, ±1 SD, n>5
# KB-GRC-1 and MV522/Q6 = test: MTT proliferation assay of mdr1 overexpressing transfectomas; assay type: cell-based, human; conditions: 72 h
# KB-3-1 = test: Growth inhibition of KB-3-1 (wild type); assay type: cell-based; conditions: Homo sapiens, ±1 SD, n>5
# HL-60 = test: Growth inhibition of HL-60 (wild type); assay type: cell-based; conditions: Homo sapiens, ±1 SD, n>5
# HL-60/ADR = test: Growth inhibition of HL-60/ADR (MDR); assay type: cell-based; conditions: Homo sapiens, HL60/ADR, ±1 SD, n>5
# caspase-3 in HL-60 cells = test: Caspase-3 activation in HL-60 cells; assay type: cell-based, human; conditions: HL-60 cells
# HL-60/ADR cells = test: Apoptosis of HL-60/ADR cells (FACS); assay type: cell-based, human
# Experimental: FACS analysis was performed to determine the influence of the TB compounds of the invention on growth cycling of cells (the analysis was performed on harvested cells, fixed in ice-cold 70% ethanol solution, then treated with 100 μg/ml of RNAse A and stained with 50 μg/ml propidium iodide for 1 h at 37° C. DNA content of the cells was analyzed by flow cytometry (Becton Dickinson FACScalibur), and the cell cycle distribution was calculated with the program ModFit LT 2.0 (Verity Software)).
# First, the stage at which the TB compounds of the invention arrest growth of HL-60 and HL-60/ADR cells was determined by FACS analysis and caspase-3 activation as described above.
# proliferating cells = test: Ability of further compounds to kill proliferating cells (average); assay type: cell-based; conditions: average TC50, proliferating cells; read-out: TC50 (the source's name)
# Experimental: as §1
# (C) Proceeding as described above, further compounds were tested for their ability to kill proliferating cells.
# tubulin [4] = test: Inhibition of [3H]vinblastine binding to tubulin; parameters: species or system bovine; conditions: single experiment
# Experimental: The TB compounds of the invention (as represented by TB compound IK-178), are nearly as potent as the strong tubulin assembly inhibitor, combretastatin A-4 (CS-A4). In particular, the GI^50 inhibitory concentration of CS-A4 was 1.2±0.03 μM (n=4), while that of TB compound IK-178 was 1.7±0.1 μM (n=3).
# tubulin [5] = test: Inhibition of tubulin assembly; assay type: biochemical, bovine; conditions: 10 μM tubulin, 20 min incubation, 30° C.; read-out: GI50 inhibitory concentration (tubulin assembly)
# Experimental: To evaluate the effects of the TB compounds of the invention on tubulin, bovine brain tubulin (2.2 mg/ml) was incubated in PEM80 (80 mM K-PIPES, 1 mM MgCl2, 1 mM EGTA) containing 10% glycerol and 2 mM GTP for 30 minutes at 37° C. in the presence or absence of 20 μg/ml nocodazole, 1 mM paclitaxel, or TB compound no. IK-178 at various concentrations. Tubulin polymer was resolved from monomer by sedimentation through a cushion of 60% glycerol in PEM80 at 70,000 rpm for 30 min at 37° C. in a Beckman TLA100 rotor. A fraction of the supernatant was removed for analysis, the cushion washed and then aspirated, and the pellet resuspended in SDS-PAGE sample buffer. Equal proportions of the supernatant and the pellet were then resolved by SDS-PAGE and tubulin visualized by staining with Coomassie blue.
# The quantitative assessment of drug inhibition of tubulin polymerization and evaluation of inhibition of [^3 H]colchicine binding to tubulin were then performed. […] Samples were placed on ice and GTP (0.4 mM) was added. Reaction mixtures were transferred to 0° C. cuvettes in Gilford 250 spectrophotometers, baselines were establishes/d, and the temperature was jumped to 30° C. with electronic temperature controllers (about 60 sec). The IC^50 was defined as the drug concentration required to inhibit extent of assembly after a 20 min incubation. […]
structure (smiles),measurement,setting,value
"COc1cc(/C=C2\CCc3cc(OC)c(OC)cc3C2=O)cc(OC)c1 [6,7-dimethoxy-2-(3',5'-dimethoxyphenylmethylene)-1-tetralone]",CC50,[1],5000 nM
same,CC50,[2],4000 nM
"COc1cc(C=C2Cc3cc(OC)c(OC)cc3C2=NO)cc(OC)c1 [5,6-dimethoxy-2-(3',5'-dimethoxyphenylmethylene)-1-hydroximinioindane]",CC50,[1],800 nM
same,CC50,[2],800 nM
"CC(=O)O[C@H]1C(=O)[C@@]2(C)[C@H]([C@H](OC(=O)c3ccccc3)[C@]3(O)C[C@H](OC(=O)[C@H](O)[C@@H](NC(=O)c4ccccc4)c4ccccc4)C(C)=C1C3(C)C)[C@]1(OC(C)=O)CO[C@@H]1C[C@@H]2O [Paclitaxel, paclitaxel, reference compound]",sensitivity with acquisition of MDR,[3],sensitivity to paclitaxel was lost
same,GI50,MV522,15 ± 4 nM
same,GI50,MV522/Q6,358 ± 8 nM
same,GI50,CEM/VLB100,606 ± 20 nM
same,GI50,MDA3-1/gp170,> 1000 nM
same,GI50,MDA-MB-321,50 ± 2 nM
same,GI50,MES-SA/DX5,> 1000 nM
same,GI50,KB-GRC-1,> 1000 nM
same,GI50,MCF-7,50 ± 6 nM
same,GI50,MES-SA,< 1 nM
same,GI50,CEM,< 1 nM
same,GI50,MCF-7/ADR,> 10000 nM
same,sensitivity of transfectomas overexpressing mdr1,KB-GRC-1 and MV522/Q6,resistant
same,GI50,KB-3-1,7 ± 3 nM
same,GI50,HL-60,< 1 nM
same,GI50,HL-60/ADR,> 1000 nM
"COc1cc2c(c(OC)c1OC)-c1ccc(OC)c(=O)cc1[C@@H](NC(C)=O)CC2 [colchicine, reference compound]",caspase-3 activity,caspase-3 in HL-60 cells,did not activate caspase-3
same,apoptosis,HL-60/ADR cells,did not induce the apoptosis
"COc1cc2c(cc1OC)C(=O)C(=Cc1cc(C)cc(C)c1)C2 [5,6-dimethoxy-2-(3',5'-dimethylphenylmethylene)-1-indanone]",CC50,[1],75 nM
same,CC50,proliferating cells,81 nM
same,CC50,[2],75 nM
"COc1cc(C=C2Cc3cc(OC)c(OC)cc3C2O)cc(OC)c1 (centres unmarked) [5,6-dimethoxy-2-(3',5'-dimethoxyphenylmethylene)-1-hydroxyindane]",CC50,[1],750 nM
"COc1cc2c(cc1OC)C(=O)C(=Cc1cccc(OC)c1OC)CC2 [6,7-dimethoxy-2-(2',3'-dimethoxyphenylmethylene)-1-tetralone]",CC50,proliferating cells,> 50000 nM
same,CC50,[2],> 50000 nM
"COc1ccc(/C=C\c2cc(OC)c(OC)c(OC)c2)cc1O [CS-A4, combretastatin A-4, reference compound]",inhibition of [3H]vinblastine binding to tubulin,tubulin [4],Neither agent inhibited
same,GI50,tubulin [5],1200 ± 30 nM
"COc1cc2c(cc1OC)C(=O)C(=Cc1cc([N+](=O)[O-])ccc1O)C2 [5,6-dimethoxy-2-(2'-hydroxy-5'-nitrophenylmethylene)-1-indanone]",CC50,proliferating cells,14500 nM
same,CC50,[2],15000 nM
"COc1ccc(C=C2CCc3cc(OC)c(OC)cc3C2=O)cc1OC [6,7-dimethoxy-2-(3',4'-dimethoxyphenylmethylene)-1-tetralone]",CC50,proliferating cells,> 50000 nM
same,CC50,[2],> 50000 nM
"COc1cc2c(cc1OC)C(=O)C(=Cc1ccc(O)cc1)CC2 [6,7-dimethoxy-2-(4'-hydroxyphenylmethylene)-1-tetralone]",CC50,proliferating cells,30000 nM
same,CC50,[2],30000 nM
"COc1cc2c(cc1OC)C(=O)C(=Cc1cc(C)ccc1C)C2 [5,6-dimethoxy-2-(2',5'-dimethylphenylmethylene)-1-indanone]",CC50,proliferating cells,30500 nM
same,CC50,[2],162000 nM
"COc1cc(C=C2Cc3cc(OC)c(OC)cc3C2=O)cc(OC)c1 [5,6-dimethoxy-2-(3',5'-dimethoxyphenylmethylene)-1-indanone]",CC50,[1],750 nM
same,CC50,proliferating cells,2000 nM
same,CC50,[2],750 nM
"COc1cc2c(cc1OC)C(=O)/C(=C/c1cc(Cl)cc(Cl)c1)C2 [5,6-dimethoxy-2-(3',5'-dichlorophenylmethylene)-1-indanone]",CC50,[1],750 nM
same,CC50,proliferating cells,2000 nM
same,CC50,[2],750 nM
